Test [1] has as its target Epidermal growth factor receptor (Homo sapiens, UniProt P00533). Nature of the test: Inhibition of epidermal growth factor receptor (EGFR).
Test [2] has as its target Tyrosine-protein kinase Lck (Homo sapiens, UniProt P06239). As to the kind of experiment: Inhibition of p56 lck tyrosine kinase.

Structures are written as SMILES. pIC50: −log10 of the molar value.

Chain of Tyrosine-protein kinase Lck (P06239 whole entry): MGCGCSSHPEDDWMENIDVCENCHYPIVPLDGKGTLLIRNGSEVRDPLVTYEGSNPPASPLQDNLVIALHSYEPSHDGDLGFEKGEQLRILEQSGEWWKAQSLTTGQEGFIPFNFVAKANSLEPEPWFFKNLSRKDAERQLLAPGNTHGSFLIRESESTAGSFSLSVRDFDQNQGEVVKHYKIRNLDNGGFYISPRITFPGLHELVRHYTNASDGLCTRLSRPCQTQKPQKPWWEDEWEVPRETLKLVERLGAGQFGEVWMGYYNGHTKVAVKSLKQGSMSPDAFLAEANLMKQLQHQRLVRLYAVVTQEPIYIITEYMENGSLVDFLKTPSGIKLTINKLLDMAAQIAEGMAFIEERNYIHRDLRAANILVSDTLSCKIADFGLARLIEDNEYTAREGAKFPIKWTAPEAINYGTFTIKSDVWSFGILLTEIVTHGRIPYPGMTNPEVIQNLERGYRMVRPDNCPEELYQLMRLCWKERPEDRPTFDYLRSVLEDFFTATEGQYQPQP
Chain of Epidermal growth factor receptor (P00533 whole entry): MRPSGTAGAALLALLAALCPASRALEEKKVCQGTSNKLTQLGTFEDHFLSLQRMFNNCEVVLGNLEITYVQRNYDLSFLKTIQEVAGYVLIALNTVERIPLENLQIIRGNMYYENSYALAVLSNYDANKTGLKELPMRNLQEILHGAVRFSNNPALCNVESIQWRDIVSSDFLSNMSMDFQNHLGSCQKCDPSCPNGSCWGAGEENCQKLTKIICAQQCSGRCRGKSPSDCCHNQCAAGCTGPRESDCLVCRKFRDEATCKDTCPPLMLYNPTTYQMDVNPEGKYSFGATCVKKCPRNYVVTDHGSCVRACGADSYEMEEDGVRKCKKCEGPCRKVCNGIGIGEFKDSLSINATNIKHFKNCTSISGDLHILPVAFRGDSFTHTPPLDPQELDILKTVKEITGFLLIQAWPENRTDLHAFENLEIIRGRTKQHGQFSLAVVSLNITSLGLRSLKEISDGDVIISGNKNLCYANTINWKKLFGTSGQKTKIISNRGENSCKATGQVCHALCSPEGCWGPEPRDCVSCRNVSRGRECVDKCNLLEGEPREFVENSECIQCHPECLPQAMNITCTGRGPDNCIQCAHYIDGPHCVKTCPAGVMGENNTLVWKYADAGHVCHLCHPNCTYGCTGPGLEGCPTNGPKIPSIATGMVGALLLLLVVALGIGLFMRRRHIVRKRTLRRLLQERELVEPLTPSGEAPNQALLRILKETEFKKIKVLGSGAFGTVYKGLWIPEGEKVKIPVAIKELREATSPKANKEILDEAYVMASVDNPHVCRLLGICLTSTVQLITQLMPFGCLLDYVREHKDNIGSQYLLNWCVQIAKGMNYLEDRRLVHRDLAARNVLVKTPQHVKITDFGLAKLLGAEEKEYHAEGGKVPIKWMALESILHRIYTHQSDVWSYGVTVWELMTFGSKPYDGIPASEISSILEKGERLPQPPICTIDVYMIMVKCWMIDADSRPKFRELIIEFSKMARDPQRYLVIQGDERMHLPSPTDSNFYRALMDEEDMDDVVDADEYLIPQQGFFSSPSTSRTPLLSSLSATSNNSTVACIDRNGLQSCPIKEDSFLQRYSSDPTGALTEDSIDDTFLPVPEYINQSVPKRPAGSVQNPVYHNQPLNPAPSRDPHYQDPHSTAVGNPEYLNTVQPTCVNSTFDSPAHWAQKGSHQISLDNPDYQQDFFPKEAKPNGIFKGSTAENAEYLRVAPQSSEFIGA

For `NC(=O)c1cc2cc(O)c(O)cc2cn1`, the pIC50 (in general, −log10 of the IC50, conventionally taken in molar units) in test [1] was under 4.00; in test [2], 2.72.
`N#C/C(=C\c1ccc(O)c(O)c1)C(N)=O` gave a pIC50 in test [1] of 4.70.
On to `O=C(NCc1ccccc1)c1cc2cc(O)c(O)cc2cn1`, for which the figures for the pIC50 in test [1] and in test [2] were 5.51 and under 3.00, respectively.
As for `NC(=O)c1cc2ccc(O)c(O)c2cn1`, the pIC50 is under 4.00 in test [1] and 6.30 in test [2].
Regarding `O=C(NCc1ccccc1)c1cc2ccc(O)c(O)c2cn1`, the results for the pIC50 in test [1] and in test [2] were 5.85 and 6.00, respectively.
On the same counts, the results for `O=C(Nc1ccccc1)c1cc2ccc(O)c(O)c2cn1` are 5.11 and 6.00.
For `O=C(NCCc1ccccc1)c1cc2ccc(O)c(O)c2cn1` the same measures were 5.85 and 4.40.
With `O=C(Nc1ccccc1)c1cc2cc(O)c(O)cc2cn1`, the pIC50 is 5.25 in test [1] and 3.22 in test [2].

Source of the values: ChEMBL document CHEMBL1126211, “Arylamides of hydroxylated isoquinolines as protein-tyrosine kinase inhibitors” (Bioorg Med Chem Lett, 1992).
